Assay [1] has as its system human cervical tumor cell line HeLa (ATCC CCL-2). Kind of assay: SAC-Formation - Paclitaxel-Induced Assay. Format: cell-based. As to conditions: Homo sapiens, HeLa, 24 h, HeLa cells, paclitaxel 0.05 μM, test range 0.005 μM-20 μM, read-out: IC50 [mol/l] SAC-Formation - Paclitaxel-Induced Assay. The method in brief:
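HeLa cells incubated overnight at 37° C, then given paclitaxel (0.05 μM final) plus test compound (0.005–20 μM, 0.5% DMSO) together for 24 h at 37° C. Fixed cells stained for phospho-histone H3 Ser10 (mitotic cells) and Hoechst 33342 (cell count); imaging-derived mitotic index fitted by four-parameter Hill equation.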

For assay [2] the test system is unchanged. Put plainly: SAC-Formation - Nocodazole-Induced Assay. Format: cell-based. As to conditions: Homo sapiens, HeLa, 24 h, HeLa cells, nocodazole 0.1 μg/ml together with test compound, decrease of mitotic cells (phospho-histone H3 Ser10). The method in brief: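 HeLa cells, plated overnight, were treated 24 h at 37 °C with nocodazole (0.1 μg/ml final) plus test compound (0.005–20 μM, 0.5% DMSO) added at the same time. After fixation, anti-phospho-histone H3 Ser10 and Hoechst staining gave the mitotic cell fraction by imaging. Values came from four-parameter Hill fits.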

As for `Cc1nsc(Nc2cnc(C(F)(F)F)cn2)c1C(=O)Nc1ccc(O[C@@H]2CCN(CC(F)F)C[C@H]2F)nc1` [Example 366, N-(6-{[(3R,4R)-1-(2,2-difluoroethyl)-3-fluoropiperidin-4-yl]oxy}pyridin-3-yl)-3-methyl-5-{[5-(trifluoromethyl)pyrazin-2-yl]amino}-1,2-thiazole-4-carboxamide], the figures for the IC50 in assay [1] and in assay [2] were 98 nM and 58 nM, respectively.
For `Cc1nsc(Nc2cnc(C(F)(F)F)cn2)c1C(=O)Nc1ccc(O[C@@H]2CCN(CC(F)(F)F)C[C@H]2F)nc1` [Example 367, N-(6-{[(3R,4R)-3-fluoro-1-(2,2,2-trifluoroethyl)piperidin-4-yl]oxy}pyridin-3-yl)-3-methyl-5-{[5-(trifluoromethyl)pyrazin-2-yl]amino}-1,2-thiazole-4-carboxamide] the same measures were 37 nM and 27 nM.
For the compound `Cc1nsc(Nc2cnc(C(F)(F)F)cn2)c1C(=O)Nc1ccc(O[C@@H]2CCN(CCC(F)(F)F)C[C@H]2F)nc1` [Example 368, N-(6-{[(3R,4R)-3-fluoro-1-(3,3,3-trifluoropropyl)piperidin-4-yl]oxy}pyridin-3-yl)-3-methyl-5-{[5-(trifluoromethyl)pyrazin-2-yl]amino}-1,2-thiazole-4-carboxamide], the IC50 in assay [1] worked out at 64 nM; in assay [2], 16 nM.
For `CCN1CC[C@@H](Oc2ccc(NC(=O)c3c(C)nsc3Nc3cnc(C(F)(F)F)cn3)cn2)[C@H](F)C1` [Example 369, N-(6-{[(3R,4R)-1-ethyl-3-fluoropiperidin-4-yl]oxy}pyridin-3-yl)-3-methyl-5-{[5-(trifluoromethyl)pyrazin-2-yl]amino}-1,2-thiazole-4-carboxamide], in that order: 150 nM and 58 nM.
For `CCCN1CC[C@H](Oc2ccc(NC(=O)c3c(C)nsc3Nc3cnc(C(F)(F)F)cn3)cn2)[C@@H](F)C1` [Example 370, N-(6-{[(3S,4S)-3-fluoro-1-propylpiperidin-4-yl]oxy}pyridin-3-yl)-3-methyl-5-{[5-(trifluoromethyl)pyrazin-2-yl]amino}-1,2-thiazole-4-carboxamide], in that order: 31 nM and 22 nM.
For `CCCN1CC[C@@H](Oc2ccc(NC(=O)c3c(C)nsc3Nc3cnc(C(F)(F)F)cn3)cn2)[C@H](F)C1` [Example 371, N-(6-{[(3R,4R)-3-fluoro-1-propylpiperidin-4-yl]oxy}pyridin-3-yl)-3-methyl-5-{[5-(trifluoromethyl)pyrazin-2-yl]amino}-1,2-thiazole-4-carboxamide] the same measures were 51 nM and 27 nM.
For the compound `Cc1nsc(Nc2cnc(C(F)(F)F)cn2)c1C(=O)Nc1ccc(N2CCN(CC(F)F)CC2)cn1` [Example 372, N-{5-[4-(2,2-difluoroethyl)piperazin-1-yl]pyridin-2-yl}-3-methyl-5-{[5-(trifluoromethyl)pyrazin-2-yl]amino}-1,2-thiazole-4-carboxamide], the IC50 amounted to 330 nM in assay [1] and 120 nM in assay [2].
For `Cc1nsc(Nc2cnc(C(F)(F)F)cn2)c1C(=O)Nc1ccc(N2CCN(CC(F)(F)F)CC2)cn1` [Example 373, 3-methyl-N-{5-[4-(2,2,2-trifluoroethyl)piperazin-1-yl]pyridin-2-yl}-5-{[5-(trifluoromethyl)pyrazin-2-yl]amino}-1,2-thiazole-4-carboxamide] the same measures were 190 nM and 260 nM.
For `Cc1nsc(Nc2cnc(C(F)(F)F)cn2)c1C(=O)Nc1ccc(N2CCN(CCC(F)(F)F)CC2)cn1` [Example 374, 3-methyl-5-{[5-(trifluoromethyl)pyrazin-2-yl]amino}-N-{5-[4-(3,3,3-trifluoropropyl)piperazin-1-yl]pyridin-2-yl}-1,2-thiazole-4-carboxamide], the values for the IC50 in assay [1] and in assay [2] were 210 nM and 120 nM, respectively.

The record behind these values is US20170334899A1, “AMINO-SUBSTITUTED ISOTHIAZOLES” (Bayer Pharma Aktiengesellschaft, priority 2014, published 2017).
